Reference: patent US8178506B2, “Oligomeric compounds and compositions for use in modulation of small non-coding RNAs” (Regulus Therapeutics Inc., priority 2003, dated 2012)
In the oligonucleotide strings, read from the 5' end, every base follows the letter of its sugar. An asterisk marks phosphorothioate; unmarked linkages are phosphodiester. Other units and linkages are bracketed, terminal groups are in braces. A string of capitals states the bases alone. e = 2'-O-(2-methoxyethyl) (MOE); [5mC] = 5-methylcytosine

Legend:
[1] = system: adipocytes; test: Triglyceride accumulation assay in adipocytes; type: cell-based, human
[2] = system: HuVECs; test: Endothelial tube formation assay in HuVECs; settings: 75 nM oligomeric compound
[3] = system: PPARγ; test: PPARγ mRNA expression in adipocytes (real-time PCR); type: cell-based, human; settings: for PPAR gamma mRNA: differentiating adipocytes transfected with oligomeric compound; for PPAR gamma (mRNA expression): adipocytes, 250 nM oligomeric compound, day nine post-transfection, relative to control (1.0)
[4] = system: HSL; test: HSL mRNA expression in adipocytes (real-time PCR); type: cell-based, human; settings: for HSL mRNA: differentiating adipocytes transfected with oligomeric compound; for HSL (mRNA expression): adipocytes, 250 nM oligomeric compound, day nine post-transfection, relative to control (1.0)
[5] = system: Glut4; test: Glut4 mRNA expression in adipocytes (real-time PCR); type: cell-based, human; settings: for GLUT4 mRNA: differentiating adipocytes transfected with oligomeric compound; for Glut4 (mRNA expression): adipocytes, 250 nM oligomeric compound, day nine post-transfection, relative to control (1.0)
[6] = system: aP2; test: aP2 mRNA expression in adipocytes (real-time PCR); type: cell-based, human; settings: for aP2 mRNA: Table 75; for AP2 (mRNA expression): adipocytes, 250 nM oligomeric compound, day nine post-transfection, relative to control (1.0)
[7] = differentiating adipocytes transfected with oligomeric compound, Table 75
[8] = differentiating adipocytes transfected with oligomeric compound
[9] = adipocytes, 250 nM oligomeric compound, relative to control (1.0), Table 15
[10] = adipocytes, 250 nM oligomeric compound, relative to control (1.0), Table 16

327917 (antisense eT*e[5mC]*eA*eA*e[5mC]*eA*eT*e[5mC]*eA*eG*eT*e[5mC]*eT*eG*eA*eT*eA*eA*eG*e[5mC]*eT*eA) [compound 327917]
TG (triglyceride accumulation) [1, 7]: 26 percentage of untreated control (UTC)
% Activity Relative to UTC (tube formation) ([2]; Table 57): 82.8%
PPAR gamma mRNA ([3]; Table 75): 54 percentage of untreated control (UTC)
HSL mRNA ([4]; Table 75): 26 percentage of untreated control (UTC)
GLUT4 mRNA ([5]; Table 75): 15 percentage of untreated control (UTC)
aP2 mRNA [6, 8]: 32 percentage of untreated control (UTC)

327918 (antisense e[5mC]*eT*eA*eG*eT*eA*e[5mC]*eA*eT*e[5mC]*eA*eT*e[5mC]*eT*eA*eT*eA*e[5mC]*eT*eG*eT*eA) [compound 327918]
TG (triglyceride accumulation) [1, 7]: 65 percentage of untreated control (UTC)
% Activity Relative to UTC (tube formation) ([2]; Table 57): 96.6%
PPAR gamma mRNA ([3]; Table 75): 74 percentage of untreated control (UTC)
HSL mRNA ([4]; Table 75): 85 percentage of untreated control (UTC)
GLUT4 mRNA ([5]; Table 75): 66 percentage of untreated control (UTC)
aP2 mRNA [6, 8]: 91 percentage of untreated control (UTC)

327919 (antisense eG*eA*eA*eA*e[5mC]*e[5mC]*e[5mC]*eA*eG*e[5mC]*eA*eG*eA*e[5mC]*eA*eA*eT*eG*eT*eA*eG*e[5mC]*eT) [compound 327919]
TG (triglyceride accumulation) [1, 9]: 0.58
TG (triglyceride accumulation) [1, 10]: 0.40
% Activity Relative to UTC (tube formation) ([2]; Table 57): 103.5%
PPAR gamma (mRNA expression) ([3]; Table 15): 0.52
PPAR gamma (mRNA expression) ([3]; Table 16): 0.57
HSL (mRNA expression) ([4]; Table 15): 0.57
HSL (mRNA expression) ([4]; Table 16): 0.37
Glut4 (mRNA expression) ([5]; Table 15): 0.32
Glut4 (mRNA expression) ([5]; Table 16): 0.18
AP2 (mRNA expression) ([6]; Table 15): 0.79
AP2 (mRNA expression) ([6]; Table 16): 0.48

327920 (antisense eG*eA*eG*eA*e[5mC]*e[5mC]*e[5mC]*eA*eG*eT*eA*eG*e[5mC]*e[5mC]*eA*eG*eA*eT*eG*eT*eA*eG*e[5mC]*eT) [compound 327920]
TG (triglyceride accumulation) [1, 7]: 20 percentage of untreated control (UTC)
% Activity Relative to UTC (tube formation) ([2]; Table 57): 41.4%
PPAR gamma mRNA ([3]; Table 75): 34 percentage of untreated control (UTC)
HSL mRNA ([4]; Table 75): 14 percentage of untreated control (UTC)
GLUT4 mRNA ([5]; Table 75): 0 percentage of untreated control (UTC)
aP2 mRNA [6, 8]: 22 percentage of untreated control (UTC)

327921 (antisense e[5mC]*eT*eT*e[5mC]*e[5mC]*eA*eG*eT*e[5mC]*eG*eG*eG*eG*eA*eT*eG*eT*eT*eT*eA*e[5mC]*eA) [compound 327921]
TG (triglyceride accumulation) [1, 7]: 56 percentage of untreated control (UTC)
% Activity Relative to UTC (tube formation) ([2]; Table 57): 96.6%
PPAR gamma mRNA ([3]; Table 75): 75 percentage of untreated control (UTC)
HSL mRNA ([4]; Table 75): 76 percentage of untreated control (UTC)
GLUT4 mRNA ([5]; Table 75): 36 percentage of untreated control (UTC)
aP2 mRNA [6, 8]: 76 percentage of untreated control (UTC)

327922 (antisense eT*e[5mC]*eA*eG*eT*eT*eT*eT*eG*e[5mC]*eA*eT*eG*eG*eA*eT*eT*eT*eG*e[5mC]*eA*e[5mC]*eA) [compound 327922]
TG (triglyceride accumulation) [1, 9]: 1.09
TG (triglyceride accumulation) [1, 10]: 0.43
% Activity Relative to UTC (tube formation) ([2]; Table 57): 89.7%
PPAR gamma (mRNA expression) ([3]; Table 15): 1.37
PPAR gamma (mRNA expression) ([3]; Table 16): 0.80
HSL (mRNA expression) ([4]; Table 15): 0.95
HSL (mRNA expression) ([4]; Table 16): 0.72
Glut4 (mRNA expression) ([5]; Table 15): 1.75
Glut4 (mRNA expression) ([5]; Table 16): 0.43
AP2 (mRNA expression) ([6]; Table 15): 0.99
AP2 (mRNA expression) ([6]; Table 16): 0.75

327923 (antisense eG*eA*eA*eA*eG*eA*eG*eA*e[5mC]*e[5mC]*eG*eG*eT*eT*e[5mC]*eA*e[5mC]*eT*eG*eT*eG*eA) [compound 327923]
TG (triglyceride accumulation) [1, 7]: 88 percentage of untreated control (UTC)
% Activity Relative to UTC (tube formation) ([2]; Table 57): 48.3%
PPAR gamma mRNA ([3]; Table 75): 77 percentage of untreated control (UTC)
HSL mRNA ([4]; Table 75): 64 percentage of untreated control (UTC)
GLUT4 mRNA ([5]; Table 75): 54 percentage of untreated control (UTC)
aP2 mRNA [6, 8]: 65 percentage of untreated control (UTC)

327925 (antisense eT*eA*eG*e[5mC]*eT*eG*eG*eT*eT*eG*eA*eA*eG*eG*eG*eG*eA*e[5mC]*e[5mC]*eA*eA) [compound 327925]
TG (triglyceride accumulation) [1, 9]: 0.72
TG (triglyceride accumulation) [1, 10]: 0.63
% Activity Relative to UTC (tube formation) ([2]; Table 58): 44.4%
PPAR gamma (mRNA expression) ([3]; Table 15): 0.60
PPAR gamma (mRNA expression) ([3]; Table 16): 0.83
HSL (mRNA expression) ([4]; Table 15): 0.78
HSL (mRNA expression) ([4]; Table 16): 0.75
Glut4 (mRNA expression) ([5]; Table 15): 1.99
Glut4 (mRNA expression) ([5]; Table 16): 0.61
AP2 (mRNA expression) ([6]; Table 15): 0.77
AP2 (mRNA expression) ([6]; Table 16): 0.77

327927 (antisense eT*eG*eT*eA*eA*eA*e[5mC]*e[5mC]*eA*eT*eG*eA*eT*eG*eT*eG*e[5mC]*eT*eG*e[5mC]*eT*eA) [compound 327927]
TG (triglyceride accumulation) [1, 8]: 125 percentage of untreated control (UTC)
% Activity Relative to UTC (tube formation) ([2]; Table 58): 59.3%
PPAR gamma mRNA [3]: 108 percentage of untreated control (UTC)
HSL mRNA [4]: 120 percentage of untreated control (UTC)
GLUT4 mRNA [5]: 120 percentage of untreated control (UTC)
AP2 mRNA [6, 8]: 114 percentage of untreated control (UTC)
